Measurements from PubChem BioAssay AID1963850 (Molecular Pharmacology Branch, DTP, NCI, 2024).

System: 192522-019-R-J2-PDC complex tumor spheroid viability
Assay: Anticancer human tumor 192522-019-R-J2-PDC patient-derived colon adenocarcinoma cell line growth inhibition [POLQ]
Conditions: for IC50: curve of first compound; for viability, T/C: stronger effect = lower value
Outline: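 PDC + HUVEC + MSC complex spheroids; POLQ inhibitors ± partner drugs; top conc. at/near clinical Cmax, else 10 microM (SN-38 1 microM), half-log dilutions; 37 degrees C, 5% CO2.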

[1] = second compound 0.0316 µM, first compound 0.0316 µM
[2] = second compound 0.0316 µM, first compound 0.1 µM
[3] = second compound 0.0316 µM, first compound 0.316 µM
[4] = second compound 0.0316 µM, first compound 1 µM
[5] = second compound 0.0316 µM, first compound 3.16 µM
[6] = second compound 0.0316 µM, first compound 10 µM
[7] = second compound 0.1 µM, first compound 0.0316 µM
[8] = second compound 0.1 µM, first compound 0.1 µM
[9] = second compound 0.1 µM, first compound 0.316 µM
[10] = second compound 0.1 µM, first compound 1 µM
[11] = second compound 0.1 µM, first compound 3.16 µM
[12] = second compound 0.1 µM, first compound 10 µM
[13] = second compound 0.316 µM, first compound 0.0316 µM
[14] = second compound 0.316 µM, first compound 0.1 µM
[15] = second compound 0.316 µM, first compound 0.316 µM
[16] = second compound 0.316 µM, first compound 1 µM
[17] = second compound 0.316 µM, first compound 3.16 µM
[18] = second compound 0.316 µM, first compound 10 µM
[19] = second compound 1 µM, first compound 0.0316 µM
[20] = second compound 1 µM, first compound 0.1 µM
[21] = second compound 1 µM, first compound 0.316 µM
[22] = second compound 1 µM, first compound 1 µM
[23] = second compound 1 µM, first compound 3.16 µM
[24] = second compound 1 µM, first compound 10 µM
[25] = second compound 3.16 µM, first compound 0.0316 µM
[26] = second compound 3.16 µM, first compound 0.1 µM
[27] = second compound 3.16 µM, first compound 0.316 µM
[28] = second compound 3.16 µM, first compound 1 µM
[29] = second compound 3.16 µM, first compound 3.16 µM
[30] = second compound 3.16 µM, first compound 10 µM
[31] = second compound 10 µM, first compound 0.0316 µM
[32] = second compound 10 µM, first compound 0.1 µM
[33] = second compound 10 µM, first compound 0.316 µM
[34] = second compound 10 µM, first compound 1 µM
[35] = second compound 10 µM, first compound 3.16 µM
[36] = second compound 10 µM, first compound 10 µM
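Note: spheroids exposed to drugs for seven days before reading.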
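Throughout, for viability, T/C: 100% = DMSO vehicle control viability in luminescence.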

`CCCS(=O)(=O)Nc1ccc(F)c(C(=O)c2c[nH]c3ncc(-c4ccc(Cl)cc4)cc23)c1F` + COC1C(OC(N)=O)C(O)C(Oc2ccc3c(O)c(NC(=O)c4ccc(O)c(CC=C(C)C)c4)c(=O)oc3c2C)OC1(C)C was tested, and the IC50 (second compound 0.0316 µM) was greater than 10 µM, the IC50 (second compound 0.1 µM) was greater than 10 µM and the IC50 (second compound 0.316 µM) was greater than 10 µM. It also gave an IC50 (second compound 1 µM) greater than 10 µM, an IC50 (second compound 3.16 µM) greater than 10 µM and an IC50 (second compound 10 µM) greater than 10 µM. The viability, T/C [1] was 115%, the viability, T/C [2] was 97.6% and the viability, T/C [3] was 110%. It also gave a viability, T/C [4] of 96.9%, a viability, T/C [5] of 124% and a viability, T/C [6] of 97.9%. It also gave a viability, T/C [7] of 105%, a viability, T/C [8] of 103% and a viability, T/C [9] of 110%. The viability, T/C [10] was 108%, the viability, T/C [11] was 107% and the viability, T/C [12] was 113%. For the same compound, the viability, T/C [13] was 109%, the viability, T/C [14] was 110% and the viability, T/C [15] was 105%. It also gave a viability, T/C [16] of 106%, a viability, T/C [17] of 104% and a viability, T/C [18] of 108%. It also gave a viability, T/C [19] of 104%, a viability, T/C [20] of 100% and a viability, T/C [21] of 107%. For the same compound, the viability, T/C [22] was 103%, the viability, T/C [23] was 101% and the viability, T/C [24] was 100%. The viability, T/C [25] was 110%, the viability, T/C [26] was 102% and the viability, T/C [27] was 108%. The viability, T/C [28] was 97.3%, the viability, T/C [29] was 106% and the viability, T/C [30] was 117%. The viability, T/C [31] was 107%, the viability, T/C [32] was 102% and the viability, T/C [33] was 103%. It also gave a viability, T/C [34] of 101%, a viability, T/C [35] of 124% and a viability, T/C [36] of 117%.

For `COc1ccc([C@@H](O)c2cc(-c3ncnc4cc(N5CCOCC5)ccc34)c(F)cc2Cl)nn1` + COC1C(OC(N)=O)C(O)C(Oc2ccc3c(O)c(NC(=O)c4ccc(O)c(CC=C(C)C)c4)c(=O)oc3c2C)OC1(C)C, the IC50 (second compound 0.0316 µM) was greater than 10 µM, the IC50 (second compound 0.1 µM) was greater than 10 µM and the IC50 (second compound 0.316 µM) was greater than 10 µM. The IC50 (second compound 1 µM) was greater than 10 µM, the IC50 (second compound 3.16 µM) was greater than 10 µM and the IC50 (second compound 10 µM) was greater than 10 µM. It also gave a viability, T/C [1] of 105%, a viability, T/C [2] of 87.2% and a viability, T/C [3] of 120%. For the same compound, the viability, T/C [4] was 97.7%, the viability, T/C [5] was 99.8% and the viability, T/C [6] was 63.1%. It also gave a viability, T/C [7] of 109%, a viability, T/C [8] of 97.6% and a viability, T/C [9] of 106%. For the same compound, the viability, T/C [10] was 95.5%, the viability, T/C [11] was 88.1% and the viability, T/C [12] was 62.4%. It also gave a viability, T/C [13] of 117%, a viability, T/C [14] of 93.2% and a viability, T/C [15] of 103%. The viability, T/C [16] was 107%, the viability, T/C [17] was 97.8% and the viability, T/C [18] was 68.5%. The viability, T/C [19] was 109%, the viability, T/C [20] was 106% and the viability, T/C [21] was 104%. It also gave a viability, T/C [22] of 92.9%, a viability, T/C [23] of 86.8% and a viability, T/C [24] of 63.1%. It also gave a viability, T/C [25] of 96%, a viability, T/C [26] of 99.2% and a viability, T/C [27] of 117%. For the same compound, the viability, T/C [28] was 84.9%, the viability, T/C [29] was 98.1% and the viability, T/C [30] was 72.9%. For the same compound, the viability, T/C [31] was 103%, the viability, T/C [32] was 104% and the viability, T/C [33] was 114%. The viability, T/C [34] was 108%, the viability, T/C [35] was 99.2% and the viability, T/C [36] was 66.9%.

With `Cn1ncnc1[C@H]1c2n[nH]c(=O)c3cc(F)cc(c23)N[C@@H]1c1ccc(F)cc1` + COC1C(OC(N)=O)C(O)C(Oc2ccc3c(O)c(NC(=O)c4ccc(O)c(CC=C(C)C)c4)c(=O)oc3c2C)OC1(C)C the IC50 (second compound 0.0316 µM) was greater than 0.1 µM, the IC50 (second compound 0.1 µM) was greater than 0.1 µM and the IC50 (second compound 0.316 µM) was greater than 0.1 µM. It also gave an IC50 (second compound 1 µM) greater than 0.1 µM, an IC50 (second compound 3.16 µM) greater than 0.1 µM and an IC50 (second compound 10 µM) greater than 0.1 µM. The viability, T/C (second compound 0.0316 µM, first compound 0.000316 µM) was 118%, the viability, T/C (second compound 0.0316 µM, first compound 0.001 µM) was 91.9% and the viability, T/C (second compound 0.0316 µM, first compound 0.00316 µM) was 95.2%. It also gave a viability, T/C (second compound 0.0316 µM, first compound 0.01 µM) of 96.6%, a viability, T/C [1] of 102% and a viability, T/C [2] of 91.4%. For the same compound, the viability, T/C (second compound 0.1 µM, first compound 0.000316 µM) was 103%, the viability, T/C (second compound 0.1 µM, first compound 0.001 µM) was 100% and the viability, T/C (second compound 0.1 µM, first compound 0.00316 µM) was 103%. For the same compound, the viability, T/C (second compound 0.1 µM, first compound 0.01 µM) was 103%, the viability, T/C [7] was 100% and the viability, T/C [8] was 97.2%. It also gave a viability, T/C (second compound 0.316 µM, first compound 0.000316 µM) of 99.9%, a viability, T/C (second compound 0.316 µM, first compound 0.001 µM) of 99.2% and a viability, T/C (second compound 0.316 µM, first compound 0.00316 µM) of 99.4%. The viability, T/C (second compound 0.316 µM, first compound 0.01 µM) was 97.4%, the viability, T/C [13] was 93.8% and the viability, T/C [14] was 87.2%. It also gave a viability, T/C (second compound 1 µM, first compound 0.000316 µM) of 98.8%, a viability, T/C (second compound 1 µM, first compound 0.001 µM) of 95.6% and a viability, T/C (second compound 1 µM, first compound 0.00316 µM) of 101%. The viability, T/C (second compound 1 µM, first compound 0.01 µM) was 99.2%, the viability, T/C [19] was 86.5% and the viability, T/C [20] was 95.1%. For the same compound, the viability, T/C (second compound 3.16 µM, first compound 0.000316 µM) was 110%, the viability, T/C (second compound 3.16 µM, first compound 0.001 µM) was 98.8% and the viability, T/C (second compound 3.16 µM, first compound 0.00316 µM) was 108%. The viability, T/C (second compound 3.16 µM, first compound 0.01 µM) was 98.1%, the viability, T/C [25] was 95.8% and the viability, T/C [26] was 90.5%. It also gave a viability, T/C (second compound 10 µM, first compound 0.000316 µM) of 108%, a viability, T/C (second compound 10 µM, first compound 0.001 µM) of 89.8% and a viability, T/C (second compound 10 µM, first compound 0.00316 µM) of 96.4%. For the same compound, the viability, T/C (second compound 10 µM, first compound 0.01 µM) was 102%, the viability, T/C [31] was 107% and the viability, T/C [32] was 94.4%.
